Patent US9706790B2, “Compounds, compositions, and methods for reducing or eliminating bitter taste” (CHROMOCELL CORPORATION, priority 2011, dated 2017)

Tested on: bitter taste of KCl
Assay: KCl Latin Square-2AFC taste test, macaroni and cheese (chew and spit)
Assay type: in vivo, humans
Details: KCl 5.7% in cheese powder (0.34% in final prepared food product); for # of panelists discerning decrease in bitter taste/# of panelists tested: versus KCl standard
Method: The taste test panelists used in the following examples were screened based upon and selected for their ability to perceive the bitter taste associated with potassium chloride. Only panelists capable of perceiving bitter taste participated in the following taste tests.
The effect of the test compounds on the perception of the bitter taste of KCl in prepared food products in humans was evaluated using a “chew and spit” test using a Latin Square-2AFC testing method as follows.
Edible KCl food products (“KCl test food product”) were prepared according to the following instructions. 6 cups water were boiled in stainless steel pot to a ‘rolling’ boil. Once a rolling boil was achieved, 166.5 grams of pasta were added to the boiling water. The pasta was stirred briefly to prevent the pasta from sticking to the pot. The pasta was boiled for 8.5 minutes and drained in a stainless steel colander. The pasta was shaken (approximately 15 times back and forth and twice up and down) to remove excess water. The drained pasta was returned to the stainless steel pot, and 56 grams (4 tablespoons) Land O'Lakes™ unsalted butter was added to the hot pasta. When the unsalted butter was half melted, 39.5 grams cheese powder (containing the KCl) was added in the center of the pasta. Separately, test compound was diluted in 1 ml of propylene glycol (PG; alternatively the test compound may also be diluted in a milk stock solution or a butter oil stock solution) and the resulting solution added to 99 ml of milk. 63 ml of the PG/milk solution was poured around cheese powder and gently folded into the pasta with a stainless steel spoon in order to avoid cheese clumping on spoon. KCl standards were similarly prepared by adding milk without any test compound.
The panelists tasted portions by chewing and spitting. In order to eliminate any effects of sample order, a complete Latin Square design was employed so that each possible order of sample presentation was utilized across subjects. Each sample was tested in several discrete taste test experiments. […]

For `C/C(=C\CO)CCCC(C)CCCC(C)CCCC(C)C` (stereo not drawn) [Compound 5], the “Conc. at Which At Least 50% of Panelists Discerned Decrease in Bitter Taste” value was 10 ppm, the “# of panelists discerning decrease in bitter taste/# of panelists tested” value (compound at 10 ppm) was 10 (28/50) and the “# of panelists discerning decrease in bitter taste/# of panelists tested” value (compound at 20 ppm) was 20 (20/49).
